These results are taken from patent US11643430B2, “Porphyrin compound or salt thereof, cancer therapeutic agent, photosensitizer, and fluorescent probe” (M.T.3, Inc., priority 2020, dated 2023).

Data set [1] can be described thus: Fluorescence lifetime from fluorescence decay curves. It is filed as physicochemical. The conditions noted are these: monoexponential curve fitting, deconvolution method. The protocol: (§1) Next, the fluorescence quantum yields (Φf) and fluorescence lifetimes (τf) of the compounds were measured. Moreover, the quantum yields (ΦΔ) of singlet oxygen generated from the compounds of Structural Formulae (IIa) and (III) were measured.
Each of the fluorescence decay curves was subjected to curve fitting with a monoexponential function using a deconvolution method, and thus τf was determined.

Data set [2] in a line: Fluorescence quantum yield, absolute PL quantum yield spectrometer. It is filed as physicochemical. The method, then:
as §1

The test system of another data set is Human-derived A549 cells. Kind of data set: Efficiency of uptake by cancer cells. Format: cell-based. To be noted: 3 μM, 12 hours incubation, fluorescence ex 418 nm / em 646 nm. An excerpt: The compound of Structural Formula (III) to which a sulfur-containing sugar-chain is linked is more likely to accumulate in tumor. Regarding such an improvement in the accumulation, the following describes the evaluation of the efficiency of uptake of the compounds of structural Formulae (IIa) and (III) by cancer cells.
Human-derived A549 cells were used as cancer cells. Dulbecco's Modified Eagle Medium (DMEM) supplemented with 10% Fetal Bovine Serum (FBS: manufactured by EQUITECH-BIO, INC.) and 1% Penicillin Streptomycin Glutamine (Invitrogen (trademark)) was used as a culture medium, which will be described later. Phosphate buffered saline (PBS) was used as a cell washing solution, and PBS containing 0.05% trypsin and 0.02% EDTA was used as a cell detaching solution. A circular plastic petri dish (Greiner Bio-one, 628160) with a diameter of 6 cm was used as a culture container.
First, an A549 cell suspension was cultured on a culture medium. 100 μL of the cell suspension was added to each well of a black 96-well plate and cultured at 37° C. in a 5% CO2 atmosphere for a day. […] Furthermore, the concentrations of the photosensitizing agents inside the cells were quantified using a fluorescence micro plate reader (Infinite M200 Pro, manufactured by TECAN). For the fluorescence observation, the excitation wavelength was 418 nm, and the observation wavelength was 646 nm. […]

A short description of data set [3]: Quantum yield of singlet oxygen by 1270 nm phosphorescence. Format: physicochemical. The conditions noted are these: in ethanol, absorbance 0.1, irradiated at 355 nm, phosphorescence at 1270 nm, TPPS standard; sodium salt. The method, then: as §1
Next, the measurement of ΦΔ will be described. First, the compounds of Structural Formula (IIa) and (III) were each dissolved in ethanol at such a concentration that gave an absorbance of 0.1, and then were irradiated with light at 355 nm using Nd^3+:YAG LASER (LS-2137U, manufactured by Lotis TII). Next, singlet oxygen was measured using a self-produced infrared emission measurement apparatus in which a near-infrared photomultiplier tube (R5509-42, manufactured by Hamamatsu Photonics K.K.) is used. It should be noted that singlet oxygen was measured 17 times, and the average value was shown as a phosphorescence spectrum in FIG. 4. Singlet oxygen emits phosphorescence at a near-infrared wavelength 1270 nm. Therefore, in this specification, ΦΔ was determined by measuring the intensity of such phosphorescence. TPPS (ΦΔ=0.63) was used as a standard substance for determination of ΦΔ. ΦΔ of the compound of Structural Formula (IIa) and ΦΔ of the compound of Structural Formula (III) were determined as 0.57 and 0.53, respectively.

For data set [4] the following is noted: standard for determination of ΦΔ; cited from earlier work.

For the molecule “3-trimethylsilyl-1-benzenecarboxyamide,N-[3-n-propyl-α-D-quinovopyranoside]-5-[10,15,20-tris(3-methoxycarbonyl-5-trimethylsilylphenyl)porphyrin] sodium salt [IIa]”, the “fluorescence lifetime (τf)” value in data set [1] is recorded as 9.2. In addition, the “fluorescence quantum yield (Φf)” value in data set [2] is listed as 0.063. In the data set on Human-derived A549 cells, the “relative uptake efficiency versus compound of Structural Formula (III)” value is recorded as 1.8 times. Moreover, the “quantum yield of singlet oxygen (ΦΔ)” value in data set [3] came to 0.53.

With `COC(=O)c1cc(-c2c3nc(c(-c4cc(C(=O)OC)cc([Si](C)(C)C)c4)c4ccc([nH]4)c(-c4cc(C(=O)OC)cc([Si](C)(C)C)c4)c4nc(c(-c5cc(C(=O)NCCCO[C@H]6O[C@H](CO)[C@@H](O)[C@H](O)[C@H]6O)cc([Si](C)(C)C)c5)c5ccc2[nH]5)C=C4)C=C3)cc([Si](C)(C)C)c1` [IId, 3-trimethylsilyl-1-benzenecarboxyamide,N-[3-n-propyl-α-D-glucopyranoside]-5-[10,15,20-tris(3-methoxycarbonyl-5-trimethylsilylphenyl)porphyrin]], the “fluorescence lifetime (τf)” value in data set [1] is 9.3. Moreover, the “fluorescence quantum yield (Φf)” value in data set [2] was 0.056.

For `O=S(=O)(O)c1ccc(-c2c3nc(c(-c4ccc(S(=O)(=O)O)cc4)c4ccc([nH]4)c(-c4ccc(S(=O)(=O)O)cc4)c4nc(c(-c5ccc(S(=O)(=O)O)cc5)c5ccc2[nH]5)C=C4)C=C3)cc1` [TPPS], the “quantum yield of singlet oxygen (ΦΔ) of standard substance” value in data set [4] is on record as 0.63.
